# Results reported in patent US9440969B2, “Compounds and methods for kinase modulation, and indications therefor” (PLEXXIKON INC., priority 2009, dated 2016).
# Legend:
# B-Raf = B-Raf (Homo sapiens, UniProt P15056); experiment: B-Raf kinase activity assay (AlphaScreen, biotin-MEK1 substrate); settings: 100 μM ATP, 100 nM biotin-MEK1, 45 minutes at room temperature; read-out: Biochemical activity (IC50 μM) B-Raf
# Method in brief: (§1)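 AlphaScreen detection of phospho-MEK1 uses anti-phospho-MEK1/2 antibody and donor/acceptor beads, incubated 3 h. The kinase step runs 45 min at room temperature with 0.1 ng enzyme, 100 nM biotin-MEK1 and 100 μM ATP in 50 mM HEPES pH 7.0. IC50 is derived from eight compound concentrations.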
# B-Raf V600E = B-Raf V600E (Homo sapiens, UniProt P15056, V600E); experiment: B-Raf V600E kinase activity assay (AlphaScreen, biotin-MEK1 substrate); settings: 100 μM ATP, 100 nM biotin-MEK1, 45 minutes at room temperature, read-out: Biochemical activity (IC50 μM) V600E
# Method in brief: as §1
# c-Raf-1 = c-Raf-1 (Homo sapiens, UniProt P04049); experiment: c-Raf-1 kinase activity assay (AlphaScreen, biotin-MEK1 substrate); settings: 100 μM ATP, 100 nM biotin-MEK1, 45 minutes at room temperature; read-out: Biochemical activity (IC50 μM) c-Raf-1
# Method in brief: as §1
# CYP1A2 = biological target: T1, CYP1A2 (Homo sapiens, UniProt P05177); experiment: CYP1A2 inhibition (fluorescent substrate CEC); type: in vitro ADME; settings: read-out: Cyp IC50 (μM) 1A2
# T1 sequence (P05177 1-516): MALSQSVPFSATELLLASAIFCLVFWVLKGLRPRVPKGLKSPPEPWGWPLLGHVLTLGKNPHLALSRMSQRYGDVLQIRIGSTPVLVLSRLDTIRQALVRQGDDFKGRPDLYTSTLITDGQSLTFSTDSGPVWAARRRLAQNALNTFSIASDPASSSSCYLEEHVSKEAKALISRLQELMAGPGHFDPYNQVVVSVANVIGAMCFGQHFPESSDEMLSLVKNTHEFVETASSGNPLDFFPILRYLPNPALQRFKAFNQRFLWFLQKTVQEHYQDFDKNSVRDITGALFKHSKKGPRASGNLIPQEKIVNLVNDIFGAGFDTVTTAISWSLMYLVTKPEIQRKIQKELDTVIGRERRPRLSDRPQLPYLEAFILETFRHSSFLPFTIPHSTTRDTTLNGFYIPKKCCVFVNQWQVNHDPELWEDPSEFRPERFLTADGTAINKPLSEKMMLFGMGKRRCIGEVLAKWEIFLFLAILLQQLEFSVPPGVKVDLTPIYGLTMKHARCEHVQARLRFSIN
# Experimental: (§2) CYP (Cytochrome P450) enzymes are the major drug metabolizing enzymes present in the liver. The inhibition of CYP enzyme activity (IC50) for each of CYP1A2, CYP2C19, CYP2C9, CYP2D6, CYP3A4(BFC) and CYP3A4(BQ) is determined for compounds, where inhibition of metabolism of a known substrate leads to a decrease in the fluorescence of the metabolized product. The fluorescence of the product is monitored as a function of compound concentration. Compounds are dissolved in dimethyl sulfoxide to a concentration of 100 mM. These are diluted […], into 82 μL of acetonitrile. An 11 μL aliquot of this solution is then added to 204 μL of cofactor mix (1.3% NADPH Regeneration system Solution A, 1.04% NADPH Regeneration system Solution B from BD Biosciences, 5% acetonitrile and 0.05% dimethyl sulfoxide). These are then serially diluted 1:1 (160 μL to 160 μL co-factor mix) for a total of 10 points. A 10 μL aliquot of this final mixture is dispensed into 384 well assay plates and incubated for 10 minutes at 37° C. Enzyme and substrate mix (10 μL; 0.5 pmol CYP1A2/5 μM CEC; 1.0 pmol CYP2C9/75 μM MFC; 0.5 pmol CYP2C19/25 μM CEC; 1.5 pmol CYP2D6/1.5 μM AMMC; 1.0 pmol CYP3A4/50 μM BFC; or 1.0 pmol CYP3A4/40 μM BQ) is added to these assay plates. Assay plates are incubated at 37° C. (CYP1A2-15 min; CYP2C9-45 min; CYP2C19, 2D6 and 3A4-30 min) and read in a Tecan Safire 2 plate reader (CYP1A2, 2C19 and 3A4 409 ex/460 em; CYP2C9 and 2D6 409 ex/530 em). The signal versus compound concentration is used to determine the IC50. The enzymes and substrates for this assay are obtained from BD Biosciences.
# CYP2C19 = CYP2C19 (Homo sapiens, UniProt P33261); experiment: CYP2C19 inhibition (fluorescent substrate CEC); type: in vitro ADME; settings: read-out: Cyp IC50 (μM) 2C19
# Experimental: as §2
# CYP2C9 = CYP2C9 (Homo sapiens, UniProt P11712); experiment: CYP2C9 inhibition (fluorescent substrate MFC); type: in vitro ADME; settings: read-out: Cyp IC50 (μM) 2C9
# Experimental: as §2
# Chain of B-Raf (P15056 whole entry): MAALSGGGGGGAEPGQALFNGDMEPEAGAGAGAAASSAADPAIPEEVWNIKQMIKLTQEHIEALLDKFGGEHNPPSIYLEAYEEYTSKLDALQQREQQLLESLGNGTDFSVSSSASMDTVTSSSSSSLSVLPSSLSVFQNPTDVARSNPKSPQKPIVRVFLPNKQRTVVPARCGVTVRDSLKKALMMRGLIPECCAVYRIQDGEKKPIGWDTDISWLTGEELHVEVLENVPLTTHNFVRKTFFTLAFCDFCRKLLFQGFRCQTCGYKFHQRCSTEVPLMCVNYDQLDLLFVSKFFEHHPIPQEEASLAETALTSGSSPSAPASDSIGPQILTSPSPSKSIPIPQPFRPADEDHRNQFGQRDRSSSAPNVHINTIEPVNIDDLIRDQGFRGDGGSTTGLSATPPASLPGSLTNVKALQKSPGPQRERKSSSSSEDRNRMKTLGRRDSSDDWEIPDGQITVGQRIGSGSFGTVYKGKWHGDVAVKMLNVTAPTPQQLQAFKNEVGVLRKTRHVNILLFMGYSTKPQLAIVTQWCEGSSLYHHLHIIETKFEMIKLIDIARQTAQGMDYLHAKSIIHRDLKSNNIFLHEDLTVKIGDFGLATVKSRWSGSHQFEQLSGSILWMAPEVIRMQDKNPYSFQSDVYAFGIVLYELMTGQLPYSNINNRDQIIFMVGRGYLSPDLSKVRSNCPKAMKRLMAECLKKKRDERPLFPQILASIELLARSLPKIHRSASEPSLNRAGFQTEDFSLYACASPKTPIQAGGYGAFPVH
# Chain of CYP2C9 (P11712 whole entry): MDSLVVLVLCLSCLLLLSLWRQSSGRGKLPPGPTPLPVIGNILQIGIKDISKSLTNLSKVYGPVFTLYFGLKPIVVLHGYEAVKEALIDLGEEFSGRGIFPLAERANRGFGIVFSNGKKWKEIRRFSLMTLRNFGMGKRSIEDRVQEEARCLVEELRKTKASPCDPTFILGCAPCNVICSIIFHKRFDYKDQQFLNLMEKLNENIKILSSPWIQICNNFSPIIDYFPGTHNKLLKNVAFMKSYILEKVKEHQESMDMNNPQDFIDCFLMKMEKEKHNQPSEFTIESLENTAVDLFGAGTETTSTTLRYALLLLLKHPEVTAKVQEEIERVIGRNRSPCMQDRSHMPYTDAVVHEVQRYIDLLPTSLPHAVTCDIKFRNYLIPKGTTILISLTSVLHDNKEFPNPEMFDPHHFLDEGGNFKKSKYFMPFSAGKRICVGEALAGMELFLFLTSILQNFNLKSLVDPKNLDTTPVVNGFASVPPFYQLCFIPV
# Chain of B-Raf V600E (P15056 whole entry V600E): as the sequence (P15056 whole entry) above, with V600E counted along it
# Chain of c-Raf-1 (P04049 whole entry Y340D/Y341D, form open): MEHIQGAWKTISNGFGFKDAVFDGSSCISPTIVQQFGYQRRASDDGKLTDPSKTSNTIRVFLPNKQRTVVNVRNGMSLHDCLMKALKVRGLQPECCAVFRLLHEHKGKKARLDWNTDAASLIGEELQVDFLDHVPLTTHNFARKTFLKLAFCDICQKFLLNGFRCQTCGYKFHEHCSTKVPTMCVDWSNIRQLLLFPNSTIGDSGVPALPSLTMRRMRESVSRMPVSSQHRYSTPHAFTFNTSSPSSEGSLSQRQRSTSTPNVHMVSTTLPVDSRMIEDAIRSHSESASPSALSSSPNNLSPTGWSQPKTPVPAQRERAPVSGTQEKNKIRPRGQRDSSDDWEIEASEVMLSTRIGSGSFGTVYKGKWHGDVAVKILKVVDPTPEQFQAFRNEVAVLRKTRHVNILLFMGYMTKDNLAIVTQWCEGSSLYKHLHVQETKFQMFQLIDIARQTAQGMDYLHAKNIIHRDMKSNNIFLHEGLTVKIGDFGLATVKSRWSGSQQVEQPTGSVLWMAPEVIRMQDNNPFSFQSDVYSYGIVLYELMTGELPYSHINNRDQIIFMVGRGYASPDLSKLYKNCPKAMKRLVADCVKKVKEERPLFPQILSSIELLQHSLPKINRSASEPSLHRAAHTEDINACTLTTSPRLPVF
# Chain of CYP2C19 (P33261 whole entry): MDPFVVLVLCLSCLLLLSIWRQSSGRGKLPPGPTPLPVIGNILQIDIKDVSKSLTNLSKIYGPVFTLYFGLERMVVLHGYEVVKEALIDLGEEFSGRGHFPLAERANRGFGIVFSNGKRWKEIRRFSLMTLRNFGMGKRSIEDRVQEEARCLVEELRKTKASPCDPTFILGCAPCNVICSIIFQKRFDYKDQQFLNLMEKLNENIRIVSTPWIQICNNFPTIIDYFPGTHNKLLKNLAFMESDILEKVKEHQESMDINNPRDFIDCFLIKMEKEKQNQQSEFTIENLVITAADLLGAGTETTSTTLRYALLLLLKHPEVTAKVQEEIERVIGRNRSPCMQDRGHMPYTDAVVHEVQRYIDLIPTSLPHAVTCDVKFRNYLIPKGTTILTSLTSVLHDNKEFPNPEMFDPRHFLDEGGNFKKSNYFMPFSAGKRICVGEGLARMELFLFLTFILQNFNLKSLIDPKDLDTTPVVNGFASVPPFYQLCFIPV
smiles,measurement,setting,value
"CCCS(=O)(=O)Nc1ccc(F)c(C(=O)c2c[nH]c3ncc(-c4cnn(C5CCNCC5)c4)cc23)c1F [P-1002, Propane-1-sulfonic acid {2,4-difluoro-3-[5-(1-piperidin-4-yl-1H-pyrazol-4-yl)-1H-pyrrolo[2,3-b]pyridine-3-carbonyl]-phenyl}-amide]",IC50,B-Raf,< 0.1 µM
same,IC50,B-Raf V600E,< 0.1 µM
same,IC50,c-Raf-1,< 0.1 µM
same,IC50,CYP1A2,> 10 µM
same,IC50,CYP2C19,> 10 µM
same,IC50,CYP2C9,> 10 µM
"CC(=O)N(c1ccc(F)c(C(=O)c2cn(C(C)=O)c3ncc(-c4ccc5c(cnn5C(C)=O)c4)cc23)c1F)S(=O)(=O)c1cc(F)ccc1F [P-0006, N-Acetyl-N-{3-[1-acetyl-5-(1-acetyl-1H-indazol-5-yl)-1H-pyrrolo[2,3-b]pyridine-3-carbonyl]-2,4-difluoro-phenyl}-2,5-difluoro-benzenesulfonamide]",IC50,B-Raf,< 0.1 µM
same,IC50,B-Raf V600E,< 0.1 µM
same,IC50,c-Raf-1,< 0.1 µM
same,IC50,CYP1A2,5 to 10 µM
same,IC50,CYP2C19,5 to 10 µM
same,IC50,CYP2C9,< 5 µM
"O=C(c1c(F)ccc(NS(=O)(=O)c2ccc(C(F)(F)F)cc2)c1F)c1c[nH]c2ncc(-c3cnn(C4CCNCC4)c3)cc12 [P-1004, N-{2,4-Difluoro-3-[5-(1-piperidin-4-yl-1H-pyrazol-4-yl)-1H-pyrrolo[2,3-b]pyridine-3-carbonyl]-phenyl}-4-trifluoromethyl-benzenesulfonamide]",IC50,B-Raf,< 0.1 µM
same,IC50,B-Raf V600E,< 0.1 µM
same,IC50,c-Raf-1,< 0.1 µM
same,IC50,CYP1A2,> 10 µM
same,IC50,CYP2C19,> 10 µM
same,IC50,CYP2C9,> 10 µM
"Cc1ncc(-c2cnc3[nH]cc(C(=O)c4c(F)ccc(NS(=O)(=O)c5cc(F)ccc5F)c4F)c3c2)cn1 [P-1503, N-{2,4-Difluoro-3-[5-(2-methyl-pyrimidin-5-yl)-1H-pyrrolo[2,3-b]pyridine-3-carbonyl]-phenyl}-2,5-difluoro-benzenesulfonamide]",IC50,B-Raf,< 0.1 µM
same,IC50,B-Raf V600E,< 0.1 µM
same,IC50,c-Raf-1,< 0.1 µM
same,IC50,CYP1A2,> 10 µM
same,IC50,CYP2C19,> 10 µM
same,IC50,CYP2C9,> 10 µM
"CC(=O)n1ncc2cc(-c3cnc4[nH]cc(C(=O)c5c(F)ccc(NS(=O)(=O)c6cc(F)ccc6F)c5F)c4c3)ccc21 [P-0005, N-{3-[5-(1-Acetyl-1H-indazol-5-yl)-1H-pyrrolo[2,3-b]pyridine-3-carbonyl]-2,4-difluoro-phenyl}-2,5-difluoro-benzenesulfonamide]",IC50,B-Raf,< 0.1 µM
same,IC50,B-Raf V600E,< 0.1 µM
same,IC50,c-Raf-1,< 0.1 µM
same,IC50,CYP1A2,> 10 µM
same,IC50,CYP2C19,< 5 µM
same,IC50,CYP2C9,< 5 µM
"CCCS(=O)(=O)Nc1ccc(F)c(C(=O)c2c[nH]c3ncc(-c4cccc5nn(C)cc45)cc23)c1F [P-0015, Propane-1-sulfonic acid {2,4-difluoro-3-[5-(2-methyl-2H-indazol-4-yl)-1H-pyrrolo[2,3-b]pyridine-3-carbonyl]-phenyl}-amide]",IC50,B-Raf,< 0.1 µM
same,IC50,B-Raf V600E,< 0.1 µM
same,IC50,c-Raf-1,< 0.1 µM
same,IC50,CYP1A2,> 10 µM
same,IC50,CYP2C19,> 10 µM
same,IC50,CYP2C9,5 to 10 µM
"CCCS(=O)(=O)Nc1ccc(F)c(C(=O)c2c[nH]c3ncc(-c4ccc5c(cnn5S(C)(=O)=O)c4)cc23)c1F [P-0016, propane-1-sulfonic acid {2,4-difluoro-3-[5-(1-methanesulfonyl-1H-indazol-5-yl)-1H-pyrrolo[2,3-b]pyridine-3-carbonyl]-phenyl}-amide]",IC50,B-Raf,< 0.1 µM
same,IC50,B-Raf V600E,< 0.1 µM
same,IC50,c-Raf-1,< 0.1 µM
same,IC50,CYP1A2,> 10 µM
same,IC50,CYP2C19,> 10 µM
same,IC50,CYP2C9,> 10 µM
"CCCS(=O)(=O)Nc1ccc(F)c(C(=O)c2c[nH]c3ncc(-c4ccc5ncsc5c4)cc23)c1F [P-0020, Propane-1-sulfonic acid [3-(5-benzothiazol-6-yl-1H-pyrrolo[2,3-b]pyridine-3-carbonyl)-2,4-difluoro-phenyl]-amide]",IC50,B-Raf,< 0.1 µM
same,IC50,B-Raf V600E,< 0.1 µM
same,IC50,c-Raf-1,< 0.1 µM
same,IC50,CYP1A2,> 10 µM
same,IC50,CYP2C19,5 to 10 µM
same,IC50,CYP2C9,> 10 µM
"CCCS(=O)(=O)Nc1ccc(F)c(C(=O)c2c[nH]c3ncc(-c4ccc5cncnc5c4)cc23)c1F [P-0025, Propane-1-sulfonic acid [2,4-difluoro-3-(5-quinazolin-7-yl-1H-pyrrolo[2,3-b]pyridine-3-carbonyl)-phenyl]-amide]",IC50,B-Raf,< 0.1 µM
same,IC50,B-Raf V600E,< 0.1 µM
same,IC50,c-Raf-1,< 0.1 µM
same,IC50,CYP1A2,> 10 µM
same,IC50,CYP2C19,> 10 µM
same,IC50,CYP2C9,5 to 10 µM
"CC(=O)n1cc(C(=O)c2c(F)ccc(NS(=O)(=O)c3cc(F)ccc3F)c2F)c2cc(-c3ccc4c(cnn4C(C)=O)c3)cnc21 [P-0004, N-{3-[1-Acetyl-5-(1-acetyl-1H-indazol-5-yl)-1H-pyrrolo[2,3-b]pyridine-3-carbonyl]-2,4-difluoro-phenyl}-2,5-difluoro-benzenesulfonamide]",IC50,B-Raf,< 0.1 µM
same,IC50,B-Raf V600E,< 0.1 µM
same,IC50,c-Raf-1,< 0.1 µM
same,IC50,CYP1A2,> 10 µM
same,IC50,CYP2C19,< 5 µM
same,IC50,CYP2C9,< 5 µM
"O=C(c1c(F)ccc(NS(=O)(=O)c2cc(F)ccc2F)c1F)c1c[nH]c2ncc(-c3ccc4[nH]ncc4c3)cc12 [P-0002, N-{2,4-Difluoro-3-[5-(1H-indazol-5-yl)-1H-pyrrolo[2,3-b]pyridine-3-carbonyl]-phenyl}-2,5-difluoro-benzenesulfonamide]",IC50,B-Raf,< 0.1 µM
same,IC50,B-Raf V600E,< 0.1 µM
same,IC50,c-Raf-1,< 0.1 µM
same,IC50,CYP1A2,> 10 µM
same,IC50,CYP2C19,5 to 10 µM
same,IC50,CYP2C9,< 5 µM
"CCCS(=O)(=O)Nc1ccc(F)c(C(=O)c2c[nH]c3ncc(-c4ccc5[nH]ncc5c4)cc23)c1F [P-0001, propane-1-sulfonic acid {2,4-difluoro-3-[5-(1H-indazol-5-yl)-1H-pyrrolo[2,3-b]pyridine-3-carbonyl]-phenyl}-amide]",IC50,B-Raf,< 0.1 µM
same,IC50,B-Raf V600E,< 0.1 µM
same,IC50,c-Raf-1,< 0.1 µM
same,IC50,CYP1A2,> 10 µM
same,IC50,CYP2C19,< 5 µM
same,IC50,CYP2C9,< 5 µM
"Cc1ccc(-c2cnc3[nH]cc(C(=O)c4c(F)ccc(NS(=O)(=O)c5cc(F)ccc5F)c4F)c3c2)cn1 [P-1408, N-{2,4-Difluoro-3-[5-(6-methyl-pyridin-3-yl)-1H-pyrrolo[2,3-b]pyridine-3-carbonyl]-phenyl}-2,5-difluoro-benzenesulfonamide]",IC50,B-Raf,< 0.1 µM
same,IC50,B-Raf V600E,< 0.1 µM
same,IC50,c-Raf-1,< 0.1 µM
same,IC50,CYP1A2,> 10 µM
same,IC50,CYP2C19,> 10 µM
same,IC50,CYP2C9,5 to 10 µM
"CCCS(=O)(=O)Nc1ccc(F)c(C(=O)c2c[nH]c3ncc(-c4ccc5[nH]ccc5c4)cc23)c1F [P-0012, Propane-1-sulfonic acid {2,4-difluoro-3-[5-(1H-indol-5-yl)-1H-pyrrolo[2,3-b]pyridine-3-carbonyl]-phenyl}-amide]",IC50,B-Raf,< 0.1 µM
same,IC50,B-Raf V600E,< 0.1 µM
same,IC50,c-Raf-1,< 0.1 µM
same,IC50,CYP1A2,> 10 µM
same,IC50,CYP2C19,< 5 µM
same,IC50,CYP2C9,5 to 10 µM
"CCCS(=O)(=O)Nc1ccc(F)c(C(=O)c2c[nH]c3ncc(-c4csc(-n5ccnc5C)n4)cc23)c1F [P-1101, Propane-1-sulfonic acid (2,4-difluoro-3-{5-[2-(2-methyl-imidazol-1-yl)-thiazol-4-yl]-1H-pyrrolo[2,3-b]pyridine-3-carbonyl}-phenyl)-amide]",IC50,B-Raf,< 0.1 µM
same,IC50,B-Raf V600E,< 0.1 µM
same,IC50,c-Raf-1,< 0.1 µM
same,IC50,CYP1A2,> 10 µM
same,IC50,CYP2C19,> 10 µM
same,IC50,CYP2C9,< 5 µM
